Legend:
[1] = Stability of biphenyl spiroiodine(III) ylide precursors; format: physicochemical
From the text: Experiments with derivatives of Meldrum's acid 8a and barbituric acid 9a, based on a challenging electron-neutral biphenyl substrate, provided radiochemical conversions of 47% and 53%, respectively. Analogs incorporating substituents on the nitrogen atoms of […] were relatively unstable at room temperature, and analogues with alkyl groups other than methyl on the quaternary carbon of diesters 9b-d were not crystalline. […] Cyclobutyl 10b and cyclopentyl 10c groups provided increased conversions, 70% and 85%, respectively.

[2] = pH assay of the [^18F]FPEB dose with pH indicator paper; format: physicochemical; details: formulated dose, n = 3
Description: The pH of [^18F]FPEB was determined by applying a few drops of the dose to pH indicator paper. Match the reference color and the pH value conformed to our release specifications (pH=4.5-8.5).

[3] = Sterility testing in TSB and FTM media; details: TSB 20-25° C., FTM 30-35° C., 14 days
Description: Sterility testing was performed post-release and must be started within 30 hours from end of synthesis. [^18F]FPEB sample was inoculated into Trypitcase Soy Broth (TSB) and Fluid Thioglycollate Medium (FTM) media tubes. TSB tubes were incubated at 20-25° C. and FTM tubes were incubated at 30-35° C. for 14 days and must be free of culture growth after 14 days.

In the case of `O=C1OC2(CCCCC2)OC(=O)C1=Ic1ccc(-c2ccccc2)cc1` [Example 10a, 1,5-dioxaspiro[5.5]undecane-2,4-dion-[1,1′biphenyl-4-iodonium]ylide], the stability of precursor ([1]; room temperature / solid state) is reported as “stable crystalline solid”.
With `N#Cc1cc(C#Cc2ccccn2)cc(I=C2C(=O)OC3(CCCC3)OC2=O)c1` [Example 31, 3-((7,9-dioxo-6,10-dioxaspiro[4.5]decan-8-ylidene)-1.3-iodanyl)-5-(pyridin-2-ylethynyl)benzonitrile] the melting point was 145 to 150 °C (dec.).
Work on `NC(=O)c1cc(F)cc(C#Cc2ccccn2)c1` [Example 32, 3-fluoro-5-(pyridin-2-ylethynyl)benzamide] yielded a melting point of 175 to 176 °C.
With `O=C1OC2(CCCC2)OC(=O)C1=Ic1ccc(-c2ccccc2)cc1` [Example 10c, 6,10-dioxaspiro[4.5]decane-7,9-dion-[1,1′-biphenyl-4-iodonium]ylide] the “thermal stability under the radiolabelling conditions” value ([1]; DMF, 120° C., 10 min) was “good thermal stability”.
With `N#Cc1cc([18F])cc(C#Cc2ccccn2)c1` [[^18F]FPEB, [^18F]3-fluoro-5-(pyridin-2-ylethynyl)benzonitrile] the “pH Assay” value [2] was 5-5.5 and the “Sterility Testing” value [3] was “No evidence of growth at 14 days post”.
